Reference: BindingDB's records for doi:10.1021/jm000317+ (Virginia Commonwealth University, 2001)

Assay: Ki value determined against Sigma opioid receptor type 2 using [3H]DTG(5 nM) with 1uM dextrallorphan to mask sigma1 binding

| Structure (SMILES) | Ki [µM] |
| --- | --- |
| CC1C2Cc3ccc(O)cc3[C@@]1(C)CCN2CCC#N (some centres not stated) [3-(8-Hydroxy-6,11-dimethyl-1,2,5,6-tetrahydro-4H-2,6-methano-benzo[d]azocin-3-yl)-propionitrile] | > 100 |
| C=CCN1CC[C@]2(C)c3cc(O)ccc3CC1C2C (some centres not stated) [3-Allyl-6,11-dimethyl-1,2,3,4,5,6-hexahydro-2,6-methano-benzo[d]azocin-8-ol] | 27 |
| C=CCCN1CC[C@]2(C)c3cc(O)ccc3CC1C2C (some centres not stated) [3-But-3-enyl-6,11-dimethyl-1,2,3,4,5,6-hexahydro-2,6-methano-benzo[d]azocin-8-ol] | 7.6 |
| C#CCCN1CC[C@]2(C)c3cc(O)ccc3CC1C2C (some centres not stated) [3-But-3-ynyl-6,11-dimethyl-1,2,3,4,5,6-hexahydro-2,6-methano-benzo[d]azocin-8-ol] | 15 |
| C=CCCCCN1CC[C@]2(C)c3cc(O)ccc3CC1C2C (some centres not stated) [3-Hex-5-enyl-6,11-dimethyl-1,2,3,4,5,6-hexahydro-2,6-methano-benzo[d]azocin-8-ol] | 0.76 |
| CC1C2Cc3ccc(O)cc3[C@@]1(C)CCN2CCCC#N (some centres not stated) [4-(8-Hydroxy-6,11-dimethyl-1,2,5,6-tetrahydro-4H-2,6-methano-benzo[d]azocin-3-yl)-butyronitrile] | 34 |
| CC1C2Cc3ccc(O)cc3[C@@]1(C)CCN2CCCCC#N (some centres not stated) [5-(8-Hydroxy-6,11-dimethyl-1,2,5,6-tetrahydro-4H-2,6-methano-benzo[d]azocin-3-yl)-pentanenitrile] | 13 |
| C=CCCCN1CC[C@]2(C)c3cc(O)ccc3CC1C2C (some centres not stated) [6,11-Dimethyl-3-pent-4-enyl-1,2,3,4,5,6-hexahydro-2,6-methano-benzo[d]azocin-8-ol] | 2.5 |
| C#CCCCN1CC[C@]2(C)c3cc(O)ccc3CC1C2C (some centres not stated) [6,11-Dimethyl-3-pent-4-ynyl-1,2,3,4,5,6-hexahydro-2,6-methano-benzo[d]azocin-8-ol] | 3.5 |
| CC1C2Cc3ccc(O)cc3[C@@]1(C)CCN2CCCCCC#N (some centres not stated) [6-(8-Hydroxy-6,11-dimethyl-1,2,5,6-tetrahydro-4H-2,6-methano-benzo[d]azocin-3-yl)-hexanenitrile] | 5.7 |
| CC1C2Cc3ccc(O)cc3[C@@]1(C)CCN2CCCCCCC#N (some centres not stated) [7-(8-Hydroxy-6,11-dimethyl-1,2,5,6-tetrahydro-4H-2,6-methano-benzo[d]azocin-3-yl)-heptanenitrile] | 1.9 |
| CC1C2Cc3ccc(O)cc3[C@@]1(C)CCN2CC#N (some centres not stated) [(8-Hydroxy-6,11-dimethyl-1,2,5,6-tetrahydro-4H-2,6-methano-benzo[d]azocin-3-yl)-acetonitrile] | 93 |
